Consider two molecules from patent US20100234278A1, “PROPHYLACTIC AND/OR THERAPEUTIC AGENTS FOR PERIPHERAL NEUROPATHY” (priority 2006, published 2010).

One series has as its system sciatic nerve axons. The experiment in a line: Histopathological evaluation of sciatic nerves (toluidine blue staining). The format is in vivo, ICR mice. How it is done:
ICR mice (male) were purchased at 5 weeks of age and handled for 1 week before use in the experiment. As an anticancer agent, taxotere (Taxotere injection, Aventis Pharma, 1V 80 mg 2 mL) was used. […] The vehicle serving as a control (0 mg/kg) was prepared in the same manner using Tween-80 and physiological saline for iv administration. On the other hand, recombinant human EPO under the trade name Epogin (Chugai Pharmaceutical Co., Ltd., Japan) was adjusted using a solution (containing […] NaCl, 0.125% histidine-HCl and 0.005% Tween 80 in 10 mmol/L phosphate buffer (pH 6.0)) and administered at 720 U/head/week. The administration schedule was as follows: […], once a week for 3 weeks (3 times in total on days 0, 7 and 14), while the vehicle and EPO (720 U/head) were each given sc (into the dorsal neck region) 3 hours before taxotere treatment. Muscle tissue was peeled off to expose sciatic nerves. Under this state, a glutaraldehyde fixing solution (stored on ice immediately before use) was added to immerse all the sciatic nerves. After incubation for 10 minutes, the sciatic nerves were isolated and gently shaken for 1 hour in a shaker containing a glutaraldehyde fixing solution. The sciatic nerves were then embedded in a standard manner into a resin for electron microscopic examination. Toluidine blue-stained sections were prepared and evaluated for the degree of axonal degeneration at three levels: none (−), mild (+) and moderate (++).

Series [1] relates to taxotere-induced peripheral neuropathy model mice. Put plainly: Evaluation of neurological symptoms in taxotere-induced peripheral neuropathy model. It counts as in vivo, ICR mice. The protocol: ICR mice (male) were purchased at 5 weeks of age and handled for 1 week before use in the experiment.
As an anticancer agent, taxotere (Taxotere injection, Aventis Pharma, 1V 80 mg 2 mL) was used.
Using the attached solution and physiological saline, taxotere was adjusted to a volume of about 0.15 ml per 10 g mouse body weight (45 mg/kg iv, 90 mg/kg ip). The vehicle serving as a control (0 mg/kg) was prepared in the same manner using Tween-80 and physiological saline for iv administration.
On the other hand, recombinant human EPO under the trade name Epogin (Chugai Pharmaceutical Co., Ltd., Japan) was adjusted using a solution (containing […] NaCl, 0.125% histidine-HCl and 0.005% Tween 80 in 10 mmol/L phosphate buffer (pH 6.0)) and administered at 720 U/head/week. The administration schedule was as follows: taxotere was given at 0 or 45 mg/kg iv (via the tail vein) or at 90 mg/kg ip, once a week for 3 weeks (3 times in total on days 0, 7 and 14), while the vehicle and EPO (720 U/head) were each given sc (into the dorsal neck region) 3 hours before taxotere treatment.
Continuous treatment with taxotere will induce typical hind leg crossing in mice when hanged by their tails. If the symptoms reach an advanced stage, the same crossing response will also occur in the forelegs, thereby leading to dysbasia. Such a symptom was used as an indicator to evaluate the mice as follows: 0=no symptom; 0.5=abnormal movement without clear flexion; 1=flexion in one hind leg; 2=hind leg flexion or extension lasting for 2 seconds or longer; 3=dysbasia. Scoring was accomplished by blind evaluation of symptoms.

Series [2] deals with streptozotocin-induced diabetes model rats. The following applies: streptozotocin-induced diabetes model rats (Bianchi et al., 2004); cited from earlier work.
In series [3] the test system is cisplatin-treated cancer patients. The following applies: EPO-treated group (Mangiameli et al., 2002); cited from earlier work.
In series [4] the test system is DRG (dorsal root ganglia). The following applies: caused by addition of HIV envelop glycoprotein gp120 (Keswanai et al., 2004); cited from earlier work.
The mark [5] stands for this setting: taxotere 90 mg/kg ip group (vehicle).

“Also recorded” adds a separate entry of the source.

For the molecule `CC(=O)O[C@@]12CO[C@@H]1C[C@H](O)[C@@]1(C)C(=O)[C@H](O)C3=C(C)[C@@H](OC(=O)[C@H](O)[C@@H](NC(=O)OC(C)(C)C)c4ccccc4)C[C@@](O)([C@@H](OC(=O)c4ccccc4)[C@H]21)C3(C)C` [taxotere], the “Histological change of sciatic nerve axons, in words” value in the series with sciatic nerve axons (groups receiving taxotere) was “diameter reduction and deformation of axons, which were indicative of clear axonal degeneration”. Moreover, in the series on sciatic nerve axons (setting [5]), the “Degree of axonal degeneration: number of animals at mild (+)” value came out at 1, the “Degree of axonal degeneration: number of animals at moderate (++)” value worked out at 3 and the “Degree of axonal degeneration: number of animals at ±” value amounted to 3. Also, the “Time at which neurological symptoms developed after the treatment” value in series [1] (taxotere 45 mg/kg iv once a week) is reported as “around 8 days”. In series [1] (taxotere 90 mg/kg ip once a week), the “Time at which neurological symptoms developed after the treatment” value is “around 8 days”.
As to erythropoietin [EPO], in the series with sciatic nerve axons (EPO group upon taxotere 90 mg/kg ip treatment), the “Degeneration levels of sciatic nerve axons, range of the group” value was “± to mild (+)”. In addition, the “Effect on axonal degeneration of sciatic nerves, in words” value with sciatic nerve axons (EPO versus vehicle, taxotere 90 mg/kg ip) is “tendency to alleviate neuropathy; also recorded: tended to suppress exacerbation”. For the same molecule, in series [2], the Pain result is “improves” and the “Reduced nerve conduction velocity” value was “improves reduced nerve conduction velocity”. The Neurological symptom scores entry in series [3] is “significantly improved”. Moreover, in series [1] (neuropathy induced by taxotere 90 mg/kg ip, EPO 720 U/head sc, after 10 days (FIG. 2)), the “Effect on neurological symptoms” value is listed as “reduce significantly the neurological symptoms; also recorded: tended to suppress exacerbation of neurological symptoms”. Besides, in series [4], the “Cell loss in DRG” value is reported as “prevents cell loss in DRG”.
